Measurements published in patent publication US6455584B1, “Prostaglandin E1 derivatives” (Taisho Pharmaceutical Co., Ltd., priority 1999, dated 2002).

Tested on: human vascular smooth muscle cells
Experiment: DNA synthesis inhibition activity of PGE1 derivatives to human vascular smooth muscle cells (3H-thymidine intake)
Assay type: cell-based
Details: for Growth inhibition rate (percent to control): concentration of the added compound 1×10^−5 M, ethanol solution, 3H-thymidine intake after culturing 24 hours, compared with vehicle-treated control; for growth inhibition activity against human vascular smooth muscle cells: summary in words of Table 1, 1×10^−5 M
Procedure: Determination of DNA synthesis inhibition activity of PGE1 derivatives to human vascular smooth muscle cells
On a plate with 24 wells (manufactured by Corning Co.), 1×10^4 cells/well of quintic culture cells of vascular cells derived from normal human aorta (manufactured by Kurabo Co.) were inoculated and cultured for 2 days. The medium was exchanged from the growth medium (SG2: manufactured by Kurabo Co.) to the basal medium (SB2: manufactured by Kurabo Co.), and cultured for 24 hours, to which was added the growth medium (SG2) containing an ethanol solution of the test compound. 0.01 mci/well of ^3H-thymidine (manufactured by Daiichi Chemicals Co.) was added and, after culturing for 24 hours, the cultured supernatant was removed by suction, followed by washing with a phosphate buffer solution (PBS).
5% Trichloroacetic acid (TCA) was added and, after allowing to stand at 4° C. for 20 minutes, the mixture was washed once with TCA. The mixture was washed with PBS, and dissolved in 0.5 M aqueous potassium hydroxide solution. Intake of ^3H-thymidine was determined using 20 μl of the aqueous potassium hydroxide solution dissolving the cells which incorporated ^3H-thymidine in the nucleus by means of a liquid scintillation counter (manufactured by Hewlett-Packard Co.).
Note: Compounds 7, 70 and 92 in the table are those which were prepared in Examples. The test compounds were each used as an ethanol solution (the concentration of the added compound: 1×10^−5 M), and compared with control (vehicle-treated group).

Compound	Growth inhibition rate (percent to control)	growth inhibition activity against human vascular smooth muscle cells
CCCC[C@@H](C)CC(O)C#CC1C(CCCCCCC(=O)O)C(=O)C[C@H]1SCCO (stereo partly drawn) [Compound 7, (11R,17R)-11-deoxy-11-(2-hydroxyethylthio)-17,20-dimethyl-13,14-didehydro-PGE1]	98.4%	high growth inhibition activity
CCCC[C@@H](C)CC(O)C#CC1C(CCCCOCC(=O)OC)C(=O)C[C@H]1SCCO (stereo partly drawn) [Compound 70, (11R,17R)-3-oxa-11-deoxy-11-(2-hydroxyethylthio)-17,20-dimethyl-13,14-didehydro-PGE1 Methyl Ester]	95.6%	high growth inhibition activity
COC(=O)COCCCCC1C(=O)C[C@@H](SCCO)C1C#CC(O)C[C@H](C)CCC=C(C)C (stereo partly drawn) [Compound 92, (11R,17R)-3-oxa-11-deoxy-11-(2-hydroxyethylthio)-20-isopropylidene-17-methyl-13,14-didehydro-PGE1 Methyl Ester]	99.3%	high growth inhibition activity
